The record followed here is EP0162592B1, “Heterocyclic amino compounds” (GLAXO GROUP LIMITED, priority 1984, dated 1985).

SMILES strings stand for the structures. Where a name gives a salt, the structure may show the parent alone.

What is called Kb is the equilibrium dissociation constant of an antagonist, usually derived from a functional assay.

The subject of the experiment is α1-adrenoreceptor. Description: a1-Adrenoreceptor antagonist action: prevention of phenylephrine contractions in rat isolated anococcygeus muscle (Schild analysis). Format: cell-based. The following applies: agonist phenylephrine, KB = concentration shifting the agonist log10 (concentration)/response curve to the right by a factor of 2, read-out: KB value at a,-adrenoreceptors. Here is the method: The a-adrenoreceptor-type selectivity of the compounds of general formula (I) is similarly assessed by measuring the ability to produce a parallel shift to the right of the logio (concentration)/response curve for the a,-adrenoreceptor agonist phenylephrine. The a,-adrenoreceptor-mediated responses of phenylephrine measured were contractions of the rat isolated anococcygeus muscle (Leighton, Butz & Parameter, Eur.J.Pharmac., 1979, 58 27-38).
Compounds were tested for their ability to prevent the action of α1-adrenoreceptor agonist phenylephrine in the rat isolated anococcygens muscle (Leighton, Butz & Parmeter, Eur. J. Pharmac., 1979 58 27-38). Antagonism of the effect of phenylephrine was quantified by measuring the parallel shift to the right of the phenylephrine log10 (concentration)/response curve in the presence of increasing concentrations of the test compound.
In (1) and (2) potency and competiveness of antagonism were determined by the method of Arunlakshana & Schild (Br. J. Pharmac. 1959, 14 48-58).

On to `c1ccc2c(c1)C[C@H]1CNC[C@@H]1O2` (racemic) [Example 2, (±)-trans-1,2,3,3a,9,9a-Hexahydro[1]benzopyrano[2,3-c]pyrrole, hydrochloride], for which the Kb is above 10 µM.
